# Test results: patent US11091501B2, “Heterocyclic compounds as RSV inhibitors” (Enanta Pharmaceuticals, Inc., priority 2017, dated 2021)
# Test system: Human RSV-A (“Long” strain)
# Experiment: RSV in vitro cytoprotection assay (CPE, ATPlite) in HEp-2 cells
# Type: cell-based
# Conditions: human respiratory syncytial virus, 96 h; HEp-2 cells, 4-day incubation, ATPlite readout; read-out: Human RSV-A (“Long” strain) EC50
# Description: RSV is a single stranded negative sense RNA virus that causes respiratory tract infections which can be dangerous to infants, the elderly, and immunosuppressed individuals. Currently there is no vaccine, and therapeutic options are both costly and of limited effectiveness. These approved treatments are Ribavirin, and Palivizumab/Synagis (a monoclonal antibody). RSV has two genotypes, A and B, which differ primarily in the structure of the virus' surface “G” attachment protein. Our current primary screen focuses on RSV-A and uses an in vitro cytoprotection assay where compounds are added in 2-fold dilutions to cells which are then subjected to fully replicative viral particles. Cell viability is measured several days later along with separate measurements of compound cytotoxicity. This report focuses on the results of our most recent screening of compounds.
# HEp-2 cells, (originally derived from tumors grown in irradiated-cortisonised weanling rats that had been injected with epidermoid carcinoma tissue from a person's larynx, but later found to be indistinguishable from HeLa cells by PCR DNA analysis), were used for the culturing of genotype A, “Long” strain RSV. Flasks were inoculated with RSV and viral stocks were collected once cytopathic effect (CPE) was greater than 90%. Viral stocks in 25% sucrose media were snap frozen using liquid nitrogen to increase viral stability. Viral stock titers were quantified by tissue culture infectious dose 50% (TCID50) using 8,000 cells per well and 3-fold viral dilutions across a 96-well plate, cultured for 4 days.
# Following extensive parameter testing, the final assay is run as follows: HEp-2 cells are seeded into the inner 60 wells of a 96-well plate at 8,000 cells per well in a volume of 50 μL using Growth Media (DMEM without phenol red, 1% L-Glut, 1% Penn/Strep, 1% nonessential amino acids, 10% FBS). 2-Fold serial dilutions of control and test compounds are added to the wells in duplicate in a total volume of 25 μL. Viral stock is then added to the wells in a volume of […] the total volume of each well to 100 μL. Each 96-well plate has a control column of 6 wells with cells and virus but no compound (negative control, max CPE), a column with cells but no compound or virus (positive control, minimum CPE), and a column with no cells or virus or compound (background plate/reagent control). The control wells with cells but no virus are given an additional 25 uL of growth media containing an equal quantity of sucrose as those wells receiving the viral stock in order to keep consistent in media and volume conditions. The outer wells of the plate are filled with 125 μL of growth media to act as a thermal and evaporative moat around the test wells. Following a 4-day incubation period, the plates are read using ATPlite (50 uL added per well), which quantifies the amount of ATP (a measure of cell health) present in each well. Assay plates are read using the Envision luminometer. In parallel, cytotoxicity is examined on an additional 96-well plate treated in an identical manner, but substituting the 25 μL of viral stock for 25 μL of growth media. […] EC50 ranges are as follows: A<0.01 μM; B 0.01-0.05 μM; C>0.05 μM.
row,SMILES,EC50 [nM]
1,O=C(Nc1c(F)cc(F)cc1Cl)c1cc2c(s1)-c1ccc(F)cc1N(C(=O)c1ccc(NC(=O)c3ccc(C(F)(F)F)nc3N3CC4(CCOCC4)C3)cc1)CC2 [Example 23],10 to 50
2,Cc1cnc(N2CC3(CCOCC3)C2)c(C(=O)Nc2ccc(C(=O)N3CCc4cc(C(=O)Nc5nccs5)sc4-c4ccc(F)cc43)cc2)c1 [Example 132],< 10
3,O=C(Nc1ccc(C(=O)N2CCc3cc(-c4nc5ccccc5[nH]4)sc3-c3ccc(F)cc32)cc1)c1cc2ccccc2nc1N1CC2(CCOCC2)C1 [Example 10],10 to 50
4,O=C(Nc1c(F)cccc1F)c1cc2c(s1)-c1ccc(F)cc1N(C(=O)c1ccc(NC(=O)c3cccnc3N3CC4(CCOCC4)C3)cc1)CC2 [Example 19],< 10
5,Cc1cnc(N2CC3(CCOCC3)C2)c(C(=O)Nc2ccc(C(=O)N3CCc4cc(C(=O)Nc5c(C)cccc5F)sc4-c4ccc(F)cc43)cc2)c1 [Example 7],< 10
6,Cc1cnc(N2CC3(CCOCC3)C2)c(C(=O)Nc2ccc(C(=O)N3CCc4cc(-c5nc(C)c(C)s5)sc4-c4ccc(F)cc43)cc2)c1 [Example 153],10 to 50
7,Cc1cnc(N2CC3(CCOCC3)C2)c(C(=O)Nc2ccc(C(=O)N3CCc4cc(-c5nnnn5C5CC5)sc4-c4ccc(F)cc43)cc2)c1 [Example 194],10 to 50
8,Cc1cnc(N2CC3(CCOCC3)C2)c(C(=O)Nc2ccc(C(=O)N3CCc4cc(C(=O)Nc5nnc(C)s5)sc4-c4ccc(F)cc43)cc2)c1 [Example 133],10 to 50
9,Cc1cnc(N2CC3(CCOCC3)C2)c(C(=O)Nc2ccc(C(=O)N3CCc4cc(-c5c[nH]c6c(Cl)cccc56)sc4-c4ccc(F)cc43)cc2)c1 [Example 175],> 50
10,Cc1cnc(N2CC3(CCOCC3)C2)c(C(=O)Nc2ccc(C(=O)N3CCc4cc(-c5ccncc5F)sc4-c4ccc(F)cc43)cc2)c1 [Example 162],< 10
11,O=C(Nc1c(F)cc(F)cc1F)c1cc2c(s1)-c1ccc(F)cc1N(C(=O)c1ccc(NC(=O)c3cc(F)cnc3N3CC4(CCOCC4)C3)cc1)CC2 [Example 4],> 50
12,O=C(Nc1c(F)cc(F)cc1Cl)c1cc2c(s1)-c1c(cc(F)c(F)c1F)N(C(=O)c1ccc(NC(=O)c3cccnc3N3CC4(CCOCC4)C3)cc1)CC2 [Example 81],10 to 50
13,Cc1cnc(N2CC3(CCOCC3)C2)c(C(=O)Nc2ccc(C(=O)N3CCc4c(sc(C(=O)Nc5c(C)cccc5F)c4F)-c4ccccc43)cc2)c1 [Example 95],< 10
14,Cc1ccc(C(=O)Nc2ccc(C(=O)N3CCc4cc(NC(=O)c5c(F)cccc5Cl)sc4-c4ccccc43)cc2)c(N2CC3(CCOCC3)C2)n1 [Example 277],10 to 50
15,O=C(Nc1c(F)cccc1F)c1cc2c(s1)-c1ccc(F)cc1N(C(=O)c1ccc(NC(=O)c3cccnc3N3C[C@@H]4C[C@H]3CO4)cc1)CC2 [Example 48],10 to 50
16,CCOCCN(C)c1ncccc1C(=O)Nc1ccc(C(=O)N2CCc3cc(C(=O)Nc4c(F)cccc4F)sc3-c3ccc(F)cc32)cc1 [Example 55],> 50
17,Cc1cnc(N2CC3(CCOCC3)C2)c(C(=O)Nc2ccc(C(=O)N3CCc4c(sc(C(=O)Nc5ccccc5Cl)c4Cl)-c4ccccc43)cc2)c1 [Example 269],10 to 50
18,Cc1cnc(N2CC3(CCOCC3)C2)c(C(=O)Nc2ccc(C(=O)N3CCc4cc(NC(=O)c5ncccc5F)sc4-c4ccccc43)cc2)c1 [Example 283],< 10
19,Cc1cc(C(=O)Nc2ccc(C(=O)N3CCc4c(sc(C(=O)Nc5c(F)cccc5F)c4F)-c4ccccc43)cc2)c(N2CC3(CCOCC3)C2)nc1C [Example 220],< 10
20,O=C(Nc1c(F)cc(F)cc1Cl)c1cc2c(s1)-c1ccc(F)cc1N(C(=O)c1ccc(NC(=O)c3cc4ccccc4nc3N3CCCS(=O)(=O)CC3)cc1)CC2 [Example 34],> 50
21,Cc1cnc(N2CC3(CCOCC3)C2)c(C(=O)Nc2ccc(C(=O)N3CCc4cc(-c5c[nH]c6ccc(C)cc56)sc4-c4ccc(F)cc43)cc2)c1 [Example 176],> 50
22,Cc1ccc(C(=O)Nc2ccc(C(=O)N3CCc4c(sc(NC(=O)c5c(F)cccc5Cl)c4F)-c4ccccc43)cc2)c(N2CC3(CCOCC3)C2)n1 [Example 309],10 to 50
23,O=C(Nc1ccc(C(=O)N2CCc3cc(-c4ccn[nH]4)sc3-c3ccc(F)cc32)cc1)c1cc(F)cnc1N1CC2(CCOCC2)C1 [Example 45],10 to 50

row,SMILES,EC50 [nM]
1,Cc1ccc(C(=O)Nc2ccc(C(=O)N3CCc4cc(C(=O)Nc5c(F)cccc5F)sc4-c4ccc(F)cc43)cc2)c(N2CC3(CCOCC3)C2)n1 [Example 110],< 10
2,Cc1ccc(NC(=O)c2sc3c(c2F)CCN(C(=O)c2ccc(NC(=O)c4cc(C)cnc4N4CC5(CCOCC5)C4)cc2)c2ccccc2-3)nc1 [Example 228],10 to 50
3,O=C(Nc1c(F)cccc1F)c1cc2c(o1)-c1ccccc1N(C(=O)c1ccc(NC(=O)c3cc4c(nc3N3CC5(CCOCC5)C3)CCC4)cc1)CC2 [Example 247],< 10
4,Cc1cnc(N2CC3(CCOCC3)C2)c(C(=O)Nc2ccc(C(=O)N3CCc4c(sc(C(=O)Nc5ncccc5C(F)(F)F)c4F)-c4ccccc43)cc2)c1 [Example 231],< 10
5,Cc1cnc(N2CC3(CCOCC3)C2)c(C(=O)Nc2ccc(C(=O)N3CCc4cc(-c5ncc(C)[nH]5)sc4-c4ccc(F)cc43)cc2)c1 [Example 187],< 10
6,Cc1cccc(F)c1NC(=O)c1cc2c(o1)-c1ccccc1N(C(=O)c1ccc(NC(=O)c3cc4c(nc3N3CC5(CCOCC5)C3)CCC4)cc1)CC2 [Example 250],< 10
7,O=C(Nc1c(F)cccc1F)c1cc2c(s1)-c1ccc(F)cc1N(C(=O)c1ccc(NC(=O)c3cc4ccccc4nc3N3CC4(CCOCC4)C3)cc1)CC2 [Example 16],< 10
8,Cc1cnc(N2CC3(CCOCC3)C2)c(C(=O)Nc2ccc(C(=O)N3CCc4cc(-c5cnsc5)sc4-c4ccc(F)cc43)cc2)c1 [Example 192],< 10
9,Cc1ccc(C(=O)Nc2ccc(C(=O)N3CCc4cc(-c5nc6cccc(F)c6[nH]5)sc4-c4ccc(F)cc43)cc2)c(N2CC3(CCOCC3)C2)n1 [Example 149],< 10
10,Cc1cnc(N2CC3(CCOCC3)C2)c(C(=O)Nc2ccc(C(=O)N3CCc4cc(-c5ccc[nH]c5=O)sc4-c4ccc(F)cc43)cc2)c1 [Example 182],< 10
11,Cc1cnc(N2CC3(CCOCC3)C2)c(C(=O)Nc2ccc(C(=O)N3CCc4cc(-c5n[nH]c6ccccc56)sc4-c4ccc(F)cc43)cc2)c1 [Example 181],< 10
12,Cc1cccc(F)c1NC(=O)c1sc2c(c1F)CCN(C(=O)c1ccc(NC(=O)c3cccnc3N3CC4(CCOCC4)C3)cc1)c1ccccc1-2 [Example 91],< 10
13,Cc1cnc(N2CC3(CCOCC3)C2)c(C(=O)Nc2ccc(C(=O)N3CCc4c(sc(C(=O)Nc5c(F)cccc5C(F)(F)F)c4F)-c4ccccc43)cc2)c1 [Example 200],< 10
14,Cc1cnc(N2CC3(CCOCC3)C2)c(C(=O)Nc2ccc(C(=O)N3CCc4cc(C(=O)Nc5c(F)cccc5F)oc4-c4ccc(F)cc43)cc2)c1 [Example 234],< 10
15,Cc1cccc(F)c1NC(=O)c1cc2c(s1)-c1ccc(F)cc1N(C(=O)c1ccc(NC(=O)c3cc4ccccc4nc3N3CC4(CCOCC4)C3)cc1)CC2 [Example 14],< 10
16,Cc1cnc(N2CC3(CCOCC3)C2)c(C(=O)Nc2ccc(C(=O)N3CCc4c(sc(C(=O)Nc5c(C)cccc5C)c4Cl)-c4ccccc43)cc2)c1 [Example 271],10 to 50
17,N#Cc1cnc(N2CC3(CCOCC3)C2)c(C(=O)Nc2ccc(C(=O)N3CCc4cc(C(=O)Nc5c(F)cc(F)cc5Cl)sc4-c4ccc(F)cc43)cc2)c1 [Example 17],10 to 50
18,Cc1cnc(N2CC3(CCOCC3)C2)c(C(=O)Nc2ccc(C(=O)N3CCc4cc(NS(=O)(=O)c5c(C)cccc5F)sc4-c4ccccc43)cc2)c1 [Example 289],> 50
19,Cc1cnc(N2CC3(CCOCC3)C2)c(C(=O)Nc2ccc(C(=O)N3CCc4c(sc(-c5nnco5)c4F)-c4ccc(F)cc43)cc2)c1 [Example 143],< 10
20,Cc1cnc(N2CC3(CCOCC3)C2)c(C(=O)Nc2ccc(C(=O)N3CCc4c(sc(-c5nc6ccccc6[nH]5)c4Cl)-c4ccccc43)cc2)c1 [Example 272],< 10
21,O=C(Nc1c(F)cccc1Cl)c1cc2c(s1)-c1c(cc(F)c(F)c1F)N(C(=O)c1ccc(NC(=O)c3cccnc3N3CC4(CCOCC4)C3)cc1)CC2 [Example 80],10 to 50
22,Cc1cnc(N2CC3(CCOCC3)C2)c(C(=O)Nc2ccc(C(=O)N3CCc4cc(-c5ccnnc5)sc4-c4ccc(F)cc43)cc2)c1 [Example 189],< 10
